Reference: PMC5648763, “Novel cycloneolignans from Vernicia fordii with inhibitory effects on over-activation of BV2 cells in vitro” (Scientific Reports, 2017)

How the values were obtained:
Format in all cases: cell-based, murine
[1] = system: NO production in LPS-induced BV2 cells; test: Nitrite assay (Griess reaction): NO production in LPS-induced BV2 cells; conditions: Mus musculus, BV-2, LPS (100 ng/ml)-activated BV2 cells, 24 h, read-out: Inhibitory effect IC50 on NO production (compounds)
Experimental: (§1) Figure 5 Effect of compounds 1 and 2 on LPS-induced NO production in microglial cells. (A) BV-2 cells were treated with compounds 1 and 2 in the presence of LPS (100 ng/ml) for 24 h at the indicated concentrations. Cell viability was detected by MTT assay. (B) BV-2 cells were treated with compounds 1 and 2 in the presence of LPS (100 ng/ml) for 24 h. NO production was tested by Griess reaction. Data are expressed as means ± SEM (n = 3). ^#P < 0.05 compared with the control group, *P < 0.05 compared with LPS group.
(§2) The murine microglial cell line BV-2 was from Shanghai Institutes for Biological Sciences, Chinese Academy of Sciences (kindly provided by Prof. Y.Q. Guo, Nankai University, China). BV-2 cells were grown (37 °C and 5% CO2) in DMEM supplemented with 10% FBS, 100 U/ml penicillin and 100 μ g/ml streptomycin. Stock cells were passaged about three times/week and used within 8 passages.
The production of NO in LPS-induced BV2 cells was assayed by Griess reaction[9]–[12]. The cells (2 × 10^4 cells/well) were plated into 96-well plates and incubated with tested samples with 100 ng/mL LPS. Twenty-four hours later, Griess reagent was added into the supernatant at room temperature. And the plates were read on a plate reader at 540 nm after fifteen minutes.

[2] = Cell viability / cytotoxicity by MTT method; conditions: mouse
Experimental: as §1, §2
(§3) Viability of BV2 cells was tested by MTT method described in our previous work[9]–[12]. The cells (2 × 10^4 cells / well) were plated into 96-well plates and were pretreated with tested samples at different concentrations for 24 h. After the supernatant taken away, MTT (0.25 mg/ml) was added into the plate and incubated for 4 h at 37 °C. Finally, the formazan crystals were dissolved in DMSO and the absorbance of each well was recorded at 490 nm using a plate reader (Bio-Tek, Winooski, VT, USA).

BV2 cells = test: Cell viability / cytotoxicity by MTT method
Experimental: as §1, §2, §3

[3] = system: IL-6 mRNA expression in BV2 cells; test: LPS-induced IL-6 mRNA expression in BV-2 cells (Real-time PCR); conditions: 10 μM, pretreated 2 h, then LPS (100 ng/mL) 4 h, qRT-PCR
Experimental: (§4) Figure 7 Effects of compounds 1, 1a, 1b, 2, 2a and 2b on LPS-induced IL-6 and IL-1β mRNA expression in microglial cells. BV-2 microglial cells were pretreated with compounds1, 2, 1a, 1b, 2a and 2b (10 μM) for 2 h and then stimulated with LPS (100 ng/mL). Total RNA was isolated 4 h after LPS treatment, the mRNA levels of IL-6 and IL-1β were measured by qRT-PCR. Data are expressed as means ± SEM (n = 3). ^#P < 0.05 compared with the control group, *P < 0.05 compared with LPS group. Mino stands for minocycline.
as §2
(§5) BV2 cells (4 × 10^5 cells/ml) were plated into 6-well plates and were pretreated with each sample for 2 h and then induced by LPS for 4 h. After that the total RNA was isolated using Trizol and converted to cDNA. CFX ConnectTM real-time PCR detection system (Bio-Rad, Hercules, CA, USA) was used for the experiment. The level of GAPDH gene was used for standardization.

[4] = system: IL-1β mRNA expression in BV2 cells; test: LPS-induced IL-1β mRNA expression in BV-2 cells (Real-time PCR); conditions: 10 μM, pretreated 2 h, then LPS (100 ng/mL) 4 h, qRT-PCR
Experimental: as §4, §2, §5

SMILES	IC50 [1] [µM]	IC50 at 24 h [2] [µM]	Cytotoxicity at the effective concentrations (BV2 cells)	Effect on LPS-induced IL-6 mRNA expression [3]	Effect on LPS-induced IL-1β mRNA expression [4]
COC1CC2(O)OCC(c3cc(O)c(O)cc31)C2c1ccc(O)c(O)c1 (racemic) [Compound 2, (±) methoxylverniciasin A]	17.4 ± 0.87	> 100	without obvious cytotoxicities	did not show inhibitory effect	did not show inhibitory effect
Oc1ccc(C2C3COC2(O)CC(O)c2cc(O)c(O)cc23)cc1O (stereo not shown) [Compound 1, Verniciasin A]	1.46 ± 0.91	> 100	without obvious cytotoxicities	suppressed	suppressed
Oc1ccc(C2C3COC2(O)CC(O)c2cc(O)c(O)cc23)cc1O (stereo not shown) [Compound 1a, 7R, 8R, 7′R, 9′S-verniciasin A]	–	–	–	significant inhibitory action	significant inhibitory action
Oc1ccc(C2C3COC2(O)CC(O)c2cc(O)c(O)cc23)cc1O (stereo not shown) [Compound 1b, 7S, 8S, 7′S, 9′R- verniciasin A]	–	–	–	did not display inhibitory activity	did not display inhibitory activity
COC1CC2(O)OCC(c3cc(O)c(O)cc31)C2c1ccc(O)c(O)c1 (stereo not shown) [Compound 2a, 7R, 8R, 7′R, 9′S−7′-methoxylverniciasin A]	–	–	–	moderate inhibitory effect	moderate inhibitory effect
